≈ marks a conversion by molar mass, not a printed value. Calls of active or inactive are those of the source. The rule behind the calls is not given here.
What was measured:
[1] = tested on: A549; assay: Cytotoxicity against human A549 assessed as reduction in cell viability measured after 72 hrs by MTT assay; assay type: functional, cell-based; settings: A549, 72 h
[2] = tested on: Raji; assay: Antitumor activity against NPG mouse xenografted with human Raji cell assessed as tumor growth inhibition at 2 mg/kg, ip measured after 5 day; assay type: functional; settings: 120 h, read-out: TGI
[3] = Toxicity in Kunming mouse assessed as mortality at 60 mg/kg, iv measured once every 30 mins upto 10 days; assay type: organism-based; settings: in vivo, 0.5 h
[4] = Oral bioavailability in nude BALB/c mouse serum at 8.0 mg/kg incubated up to 9 hrs, via gavage by LC-MS/MS analysis; assay type: ADME, organism-based
[5] = Toxicity in NPG mouse xenografted with human Raji cells assessed as body weight loss at 8 mg/kg, ig measured on the 1 day; assay type: organism-based; settings: in vivo, po, 24 h
[6] = tested on: HCT-116; assay: Induction of apoptosis in human HCT-116 cells assessed as early apoptotic cells level at 0.03 uM incubated for 24 hrs by Annexin V-FITC/PI staining based flow cytometry (reference value: 0.17%); assay type: functional
[7] = AUC (0 to infinity) in nude BALB/c mouse serum at 8.0 mg/kg incubated up to 9 hrs, po administered via gavage by LC-MS/MS analysis; assay type: ADME, organism-based; parameters: route oral, dose 8 mg/kg, time <=9; settings: in vivo
[8] = molecular target: T1, DNA topoisomerase 1 (Homo sapiens) (UniProt P11387); assay: Inhibition of human recombinant topoisomerase I using DNA pBR322 as substrate assessed as relaxed DNA at 10 uM incubated for 30 mins by gel electrophoresis analysis relative to control
T1 sequence (whole entry): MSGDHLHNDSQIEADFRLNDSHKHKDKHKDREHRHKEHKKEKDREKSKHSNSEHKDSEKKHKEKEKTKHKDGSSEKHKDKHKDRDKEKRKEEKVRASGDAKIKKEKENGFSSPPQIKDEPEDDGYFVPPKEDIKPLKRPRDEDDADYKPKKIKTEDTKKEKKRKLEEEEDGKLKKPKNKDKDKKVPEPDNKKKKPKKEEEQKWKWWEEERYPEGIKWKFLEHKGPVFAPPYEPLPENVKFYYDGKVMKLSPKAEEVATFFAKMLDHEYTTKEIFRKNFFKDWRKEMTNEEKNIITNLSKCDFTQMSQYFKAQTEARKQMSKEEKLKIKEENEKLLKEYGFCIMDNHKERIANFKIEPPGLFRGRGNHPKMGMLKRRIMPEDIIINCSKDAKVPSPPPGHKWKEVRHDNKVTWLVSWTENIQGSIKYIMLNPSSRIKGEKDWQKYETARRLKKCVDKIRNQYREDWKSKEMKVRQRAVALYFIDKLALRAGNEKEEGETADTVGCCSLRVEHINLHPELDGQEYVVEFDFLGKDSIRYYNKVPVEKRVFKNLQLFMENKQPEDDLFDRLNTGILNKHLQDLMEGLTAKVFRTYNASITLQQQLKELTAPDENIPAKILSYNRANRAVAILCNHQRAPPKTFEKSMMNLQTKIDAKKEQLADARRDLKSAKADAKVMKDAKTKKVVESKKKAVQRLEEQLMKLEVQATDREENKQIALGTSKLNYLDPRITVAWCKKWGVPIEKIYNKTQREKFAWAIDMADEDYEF

[9] = tested on: HCT-116; assay: Induction of apoptosis in human HCT-116 cells assessed as early apoptotic cells level at 1 uM incubated for 24 hrs by Annexin V-FITC/PI staining based flow cytometry (reference value: 0.17%); assay type: functional
[10] = Solubility of compound in phosphate buffer at pH 4.5 incubated for 24 hrs under shaking condition by HPLC analysis; assay type: physicochemical
[11] = molecular target: T1, DNA topoisomerase 1 (Homo sapiens); assay: Inhibition of human recombinant topoisomerase I using DNA pBR322 as substrate assessed as relaxed DNA at 100 uM incubated for 30 mins by gel electrophoresis analysis relative to control
[12] = tested on: Raji; assay: Antitumor activity against NPG mouse xenografted with human Raji cell assessed as tumor growth inhibition at 8 mg/kg, ig measured after 5 day; assay type: functional; settings: po, 120 h, read-out: TGI
[13] = Cmax in nude BALB/c mouse serum at 8.0 mg/kg incubated up to 9 hrs, iv administered […] by LC-MS/MS analysis; assay type: ADME, organism-based; parameters: route intravenous, dose 8 mg/kg, time <=9
[14] = Half life in nude BALB/c mouse serum at 8.0 mg/kg incubated up to 9 hrs, iv administered […] by LC-MS/MS analysis; assay type: ADME, organism-based
[15] = tested on: HCT-116; assay: Antitumor activity against human HCT-116 cells xenografted in nude BALB/c mouse assessed as tumor growth inhibition at 2 mg/kg, po dosed once the other day for 12 times upto 24 days; assay type: functional; settings: HCT-116, po, 576 h, time day <=24, read-out: TGI
[16] = Toxicity in NPG mouse xenografted with human Raji cells assessed as body weight loss at 2 mg/kg, ip measured on the day 1; assay type: organism-based; settings: in vivo
[17] = Toxicity in NPG mouse xenografted with human Raji cells assessed as body weight loss at 4 mg/kg, ig measured after 5 day; assay type: organism-based; settings: in vivo, po, 120 h
[18] = tested on: COLO 205; assay: Cytotoxicity against human COLO 205 assessed as reduction in cell viability measured after 72 hrs by MTT assay; assay type: functional, cell-based; settings: COLO 205, 72 h
[19] = tested on: HCT-116; assay: Cytotoxicity against human HCT-116 assessed as reduction in cell viability measured after 72 hrs by MTT assay; assay type: functional, cell-based; settings: HCT-116, 72 h
[20] = Toxicity in Kunming mouse assessed as mortality at 30 mg/kg, iv measured once every 30 mins upto 10 days; assay type: organism-based; settings: in vivo, 0.5 h
[21] = tested on: Raji; assay: Antitumor activity against NPG mouse xenografted with human Raji cell assessed as decrease in tumor volume at 4 mg/kg, ip measured after 5 day; assay type: functional
[22] = tested on: HCT-116; assay: Inhibition of colony formation in human HCT-116 cells incubated for 12 days by crystal violet dye based assay; assay type: functional, cell-based; settings: dose 0.001-1 nM, time 12.0 day
[23] = tested on: HCT-116; assay: Induction of apoptosis in human HCT-116 cells assessed as late apoptotic cells level at 0.03 uM incubated for 24 hrs by Annexin V-FITC/PI staining based flow cytometry (reference value: 0.07%); assay type: functional
[24] = Clearance in nude BALB/c mouse serum at 8.0 mg/kg incubated up to 9 hrs, po administered via gavage by LC-MS/MS analysis; assay type: ADME, organism-based
[25] = tested on: Raji; assay: Cytotoxicity against human Raji assessed as reduction in cell viability measured after 72 hrs by MTT assay; assay type: functional, cell-based
[26] = Toxicity in Kunming mouse assessed as mortality at 200 mg/kg ip measured once every 30 mins upto 10 days; assay type: organism-based; settings: in vivo, 0.5 h
[27] = Solubility of compound in water incubated for 24 hrs under shaking condition by HPLC analysis; assay type: physicochemical
[28] = Clearance in nude BALB/c mouse serum at 8.0 mg/kg incubated up to 9 hrs, iv administered […] by LC-MS/MS analysis; assay type: ADME, organism-based
[29] = tested on: Raji; assay: Antitumor activity against NPG mouse xenografted with human Raji cell assessed as decrease in tumor volume at 2 mg/kg, ip measured after 5 day; assay type: functional
[30] = tested on: Raji; assay: Antitumor activity against NPG mouse xenografted with human Raji cell assessed as decrease in tumor volume at 8 mg/kg, ig measured on the 1 day; assay type: functional
[31] = Toxicity in NPG mouse xenografted with human Raji cells assessed as body weight loss at 4 mg/kg, ip measured on the day 1; assay type: organism-based; settings: in vivo

With `CCc1c2c(nc3ccc(OCC(=O)N4CCCCC4)cc13)-c1cc3c(c(=O)n1C2)COC(=O)[C@]3(O)CC` the IC50 [1] was 11 nM, the inhibition in vivo at 2 mg/kg [2] was 104% and the Activity [3] was “Non-Toxic”. For the same compound, the bioavailability [4] was 22.4%, the Activity [5] was 24.6 g and the Activity [6] was 7.55%. It also gave an AUC [7] of 168.07 h/ng/mL, an inhibition [8] of 52.3% and an Activity [9] of 16.95%. The solubility thermodynamic at 24 h [10] was 9.86 µg/mL (≈ 19.1 µM), the inhibition [11] was 63.5% and the inhibition in vivo at 8 mg/kg [12] was 81.3%. The Cmax [13] was 1630 ng/mL, the half-life [14] was 1.03 h and the inhibition in vivo at 2 mg/kg [15] was 79.6%. The Activity [16] was 23.2 g, the Activity [17] was 25.8 g and the IC50 [18] was 96 nM. For the same compound, the IC50 [19] was 3 nM, the Activity [20] was “Non-Toxic” and the Activity [21] was 729 mm3. The inhibition [22] was “Active”, the Activity [23] was 10.73% and the CL/F [24] was 0.794 mL/min. The IC50 [25] was 2 nM, the Activity [26] was “Toxic” and the solubility thermodynamic at 24 h [27] was 6.22 µg/mL (≈ 12 µM). The clearance [28] was 0.179 mL/min, the Activity [29] was 936 mm3 and the Activity [30] was 956 mm3. For the same compound, the Activity [31] was 24.8 g.

Reference: ChEMBL document CHEMBL4706505, “F10, a new camptothecin derivative, was identified as a new orally-bioavailable, potent antitumor agent” (Eur J Med Chem, 2020)
